Experimental data as given in patent US20230309522A1, “ANIMAL MODEL, METHODS FOR MAKING AND USING THEREOF, AND COMPOSITION FOR TREATING ATAXIA” (priority 2022, published 2023).
Marks after values point to notes of the source that are not given here.

Key:
Type in all cases: in vivo, mouse
[1] = tested on: Calbindin; experiment: Immunohistochemistry of cerebellar tissue, relative calbindin intensity; settings: 3AP-injected mice, relative to WT 1.00, FIG. 3C
Procedure: (§1) The cerebellar tissue was isolated from anesthetized mice (six weeks old) and fixed with paraformaldehyde in […] (Thermofisher scientific, USA) and overnight at 4° C. The cerebellar tissue was then dehydrated by being incubated with PBS containing 30% sucrose at 4° C. then embedded in optimal cutting temperature (OCT) medium (Thermofisher scientific, USA) and frozen by using dry ice. The frozen tissues were cut with a cryostat (Thermo HM525NX Cryostat with UV Disinfection, Thermofisher scientific, USA) at 20 µm thickness and slices were placed on glass slides (Thermofisher scientific, USA). For immunohistochemical analysis, cerebellar tissue specimens were washed with PBS for 30 min and blocked with 10% bovine serum albumin (Sigma-Aldrich, USA) in PBST for 30 min at room temperature and then incubated with respective primary antibodies (Calbindin [8 μg/mL]: Invitrogen, USA; Tyrosine Hydrolase [1:400]: Invitrogen. USA) for overnight at 4° C. The specimens were further incubated with secondary antibodies (1:1500, Invitrogen. USA) for overnight at 4° C. […] The DAPI intensity and primary antibody (Calbindin or Tyrosine Hydrolase) intensity were recorded. The relative primary antibody intensity was calculated based on the following formula: […]

[2] = tested on: Tyrosine Hydrolase (TH); experiment: Immunohistochemistry of substantia nigra compacta, Tyrosine Hydrolase expression; settings: 3AP ataxia model vs wildtype, FIGS. 6A and 6B
Procedure: as §1

[3] = tested on: Clock; experiment: Quantitative RT-PCR of brain regions, Clock mRNA
Procedure: (§2) To prepare RNA by RT-PCR, mice were deeply anesthetized with isoflurane inhalation. […] Total RNA was extracted by TRIzol reagent-based procedure (Thermofisher scientific, USA) and quantified by NanoDrop 2000 spectrophotometer ([…], USA). The total RNA obtained (20 μg) was reverse-transcribed to synthesize complementary DNA (cDNA) using a first-strand cDNA synthesis kit (Takara. Japan). Quantitative assays were performed on each cDNA using the primers listed in Table 3 with SYBR® Premix Ex Taq™ (Takara, Japan) in the given cycling condition (95° C. for 30 seconds, 32 cycles of 95° C. for 5 seconds and 60° C. for 30 seconds), as provided by the manufacturer's instruction.

[4] = tested on: Cry1; experiment: Quantitative RT-PCR of brain regions, Cry1 mRNA
Procedure: as §2

[5] = tested on: C57BU6J mice; experiment: Footprint test on 3AP-induced ataxia mice
Excerpt: (§3) Four different behavior tests were used in the present disclosure: footprint, irregular ladder, rotarod and body balance (elevated beam) tests. These behavior tests have been widely used for detection of ataxia^40-42. Two different time durations were used to differentiate the peak and trough expressions of the Bmal1 gene. i.e., daytime described herein refers to seven hours later after light exposure (˜2 pm); nighttime described herein refers to four hours later after dim light ([…]). These behavior tests were carried out at daytime (˜2 pm) and nighttime (˜11 pm), given the differential expression of Bmal1 in cerebellum having the highest level at ˜2 pm and the lowest level at ˜11 pm.
Footprint test: Three measurements were included: i) front paw distance; ii) hind paw distance; and iii) stride. The footprint behavior tool was custom-made to have a narrow, foot-printable glass plate with the length of 85 cm and the width of 5 cm. Each paw distance was measured with footsteps printed during the walking across the narrow road.

[6] = tested on: C57BU6J mice; experiment: Rotarod test on 3AP-induced ataxia mice; settings: for motor learning, percentage change in rotarod performance: 3AP local; for rotarod-based motor behavior: 3AP-induced ataxia mice, FIG. 1C
Excerpt: as §3
Rotarod test: It has been widely used in determining general motor skills. In brief, mice walked on the rotarod with a width of 5 cm, a height of 20 cm and a diameter of 3 cm of rolling rods. The total time for mice to sustain on the rotarod in increasing speeds at a unit of revolution per minute (rpm) was taken for a measurement of motor skills such as balance and gait functions. Motor learning was calculated as a percentage change in the performance (at a maximum speed) over 5 min, 10 min or 15 min blocks sequentially.

[7] = tested on: C57BU6J mice; experiment: Elevated beam test on 3AP-induced ataxia mice
Excerpt: as §3
Elevated beam test: Every single slip was counted during the walking^43. Mice were requested to walk through a wall with a distance of 40 cm, a height of 16 cm and a width of 0.5 cm. All tests were conducted in a quiet environment without noise and bright light disturbance.

[8] = tested on: C57BU6J mice; experiment: Determining the least concentration of 3AP for induction of ataxia-like behaviors: survival time
Procedure: Six to seven-week-old C57BU6J and B6.129-Arnt1^tm1Bra/J (Bmal1 gene-deficient mice) male mice were used for all experiments described hereinafter. All experiments were performed on mice anesthetized by an intraperitoneal (i.p.) injection of 100 mg ketamine/kg and 20 mg xylazine/kg, based on their body weights.
In this example, a chemically-induced ataxia animal model was established upon systematic application of 3AP^19,20. Besides systematic (i.e. intraperitoneal, i.p., injection), local injection [in cerebellum, coordinate (Bregma): −7.08, 0, −2.1] of 3AP in C57BU6J mice could also be used to generate the chemically-induced ataxia animal models^23-25. Initially, different concentrations of 3AP were applied for determining the least concentration of 3AP for life-long induction of ataxia-like behaviors (Table 1).

[9] = tested on: Bmal1; experiment: Quantitative RT-PCR of brain regions, Bmal1 mRNA
Procedure: as §2

[10] = tested on: C57BU6J mice; experiment: Irregular ladder test on 3AP-induced ataxia mice
Excerpt: as §3
Irregular ladder test: A mouse was requested to walk through an irregularly arranged ladder with a distance of 85 cm and a width of 5 cm. Every single slip during walk steps was counted as a failure of gait and balance measurement.

[11] = tested on: Per1; experiment: Quantitative RT-PCR of brain regions, Per1 mRNA
Procedure: as §2

## CC(=O)c1cccnc1 [3AP, 3-acetyl pyridine]
[1]
  expression of calbindin in the Purkinje cell layer (relative intensity): 0.123±0.052
[2]
  Tyrosine Hydrolase (TH) expression in substantia nigra compacta (SNc): similarly expressed
[3]; 25 mg 3AP, Cerebellum
  Relative level of mRNA, Clock: 0.83
[3]; 25 mg 3AP, Inferior Olive
  Relative level of mRNA, Clock: 0.86
[3]; 25 mg 3AP, Motor cortex
  Relative level of mRNA, Clock: 0.93
[3]; 25 mg 3AP, Striatum
  Relative level of mRNA, Clock: 0.77
[3]; 35 mg 3AP, Cerebellum
  Relative level of mRNA, Clock: 0.94
[3]; 35 mg 3AP, Inferior Olive
  Relative level of mRNA, Clock: 0.59*
[3]; 35 mg 3AP, Motor cortex
  Relative level of mRNA, Clock: 0.82
[3]; 35 mg 3AP, Striatum
  Relative level of mRNA, Clock: 0.87
[4]; 25 mg 3AP, Cerebellum
  Relative level of mRNA, Cry1: 0.82
[4]; 25 mg 3AP, Inferior Olive
  Relative level of mRNA, Cry1: 0.74
[4]; 25 mg 3AP, Motor cortex
  Relative level of mRNA, Cry1: 0.87
[4]; 25 mg 3AP, Striatum
  Relative level of mRNA, Cry1: 0.91
[4]; 35 mg 3AP, Cerebellum
  Relative level of mRNA, Cry1: 0.66
[4]; 35 mg 3AP, Inferior Olive
  Relative level of mRNA, Cry1: 0.70
[4]; 35 mg 3AP, Motor cortex
  Relative level of mRNA, Cry1: 0.68
[4]; 35 mg 3AP, Striatum
  Relative level of mRNA, Cry1: 0.89
[5]; 35 mg/kg 3AP-injected mice, FIG. 1A, WT 1.084
  front paw distance: 0.832±0.112 cm
[5]; 35 mg/kg 3AP-injected mice, FIG. 1A, WT 2.09
  hind paw distance: 4.67±0.208 cm
[5]; 35 mg/kg 3AP-injected mice, FIG. 1A, WT 5.27
  stride: 1.11±0.088 cm
[5]; local 3AP-intoxicated mice without Bmal1 viral vector, FIG. 4C, wildtype 2.13
  hind paw distance: 4.28±0.314 cm
[5]; local 3AP-intoxicated mice without Bmal1 viral vector, FIG. 4D, wildtype 5.02
  stride: 1.10±0.124 cm
[5]; local 3AP-intoxicated mice without Bmal1 viral vector, FIG. 4E, wildtype 1.12
  front paw distance: 1.10±0.053 cm
[6]; 3AP local injection in the cerebellum, daytime, FIG. 2A, WT 29.32
  performance in the rotarod test: 14.32±1.02 rpm
[6]; training time 5 min, Wild Type 76.4
  motor learning, percentage change in rotarod performance: −4.8 ± 4.22%
[6]; training time 10 min, Wild Type 88.6
  motor learning, percentage change in rotarod performance: −4.1 ± 7.32%
[6]; training time 15 min, Wild Type 95.46
  motor learning, percentage change in rotarod performance: −4.5 ± 4.12%
[6]; day, WT day 28.00
  rotarod-based motor behavior: 14.57±1.38 rpm
[6]; night, WT night 17.25
  rotarod-based motor behavior: 15.22±0.78 rpm
[6]; local 3AP-intoxicated mice without Bmal1 viral vector, FIG. 4G, wildtype 30
  rotarod performance: 14.2±0.130 rpm
[7]; 3AP local injection in the cerebellum, FIG. 2B, WT 0.87
  slips in the elevated beam test: 10.46±0.92
[7]; 3AP-induced ataxia mice, day, FIG. 1D, WT day 0.93
  number of slips, elevated beam: 10.23±0.23
[7]; 3AP-induced ataxia mice, night, FIG. 1D, WT night 9.92
  number of slips, elevated beam: 10.24±0.23
[7]; local 3AP-intoxicated mice without Bmal1 viral vector, FIG. 4H, wildtype 0.85
  number of slips, elevated beam: 10.7±0.176
[8]; 0.05 mg/kg, stereotaxic local injection to the cerebellum
  Survival time: No ataxia
[8]; 0.1 mg/kg, stereotaxic local injection to the cerebellum
  Survival time: >120 h
[8]; 0.15 mg/kg, stereotaxic local injection to the cerebellum
  Survival time: No survive
[8]; 0.2 mg/kg, stereotaxic local injection to the cerebellum
  Survival time: No survive
[8]; 25 mg/kg, intraperitoneal systematic injection
  Survival time: No ataxia
[8]; 35 mg/kg, intraperitoneal systematic injection
  Survival time: >120 h
[8]; 45 mg/kg, intraperitoneal systematic injection
  Survival time: 24 h
[8]; 50 mg/kg, intraperitoneal systematic injection
  Survival time: 8 h
[8]; 65 mg/kg, intraperitoneal systematic injection
  Survival time: 3 h
[8]; 70 mg/kg, intraperitoneal systematic injection
  Survival time: 0.25 h
[9]; 25 mg 3AP, Cerebellum
  Relative level of mRNA, Bmal1: 0.82
[9]; 25 mg 3AP, Inferior Olive
  Relative level of mRNA, Bmal1: 0.85
[9]; 25 mg 3AP, Motor cortex
  Relative level of mRNA, Bmal1: 0.93
[9]; 25 mg 3AP, Striatum
  Relative level of mRNA, Bmal1: 0.94
[9]; 35 mg 3AP, Cerebellum, 0.00 = extremely low concentration or the absence of the gene tested
  Relative level of mRNA, Bmal1: 0.00***
[9]; 35 mg 3AP, Inferior Olive, 0.00 = extremely low concentration or the absence of the gene tested
  Relative level of mRNA, Bmal1: 0.00***
[9]; 35 mg 3AP, Motor cortex, 0.00 = extremely low concentration or the absence of the gene tested
  Relative level of mRNA, Bmal1: 0.00***
[9]; 35 mg 3AP, Striatum, 0.00 = extremely low concentration or the absence of the gene tested
  Relative level of mRNA, Bmal1: 0.00***
[9]; local 3AP-intoxicated mice vs wildtype control, daytime, FIG. 3B
  mRNA expression of Bmal1: far reduced
[10]; 3AP-induced ataxia mice, FIG. 1B, WT 1.61
  number of slips, irregular ladder: 8.92±0.178
[10]; local 3AP-intoxicated mice without Bmal1 viral vector, FIG. 4F, wildtype 0.87
  number of slips, irregular ladder: 11.2±0.075
[11]; 25 mg 3AP, Cerebellum
  Relative level of mRNA, Per1: 0.81
[11]; 25 mg 3AP, Inferior Olive
  Relative level of mRNA, Per1: 0.88
[11]; 25 mg 3AP, Motor cortex
  Relative level of mRNA, Per1: 0.87
[11]; 25 mg 3AP, Striatum
  Relative level of mRNA, Per1: 0.76
[11]; 35 mg 3AP, Cerebellum
  Relative level of mRNA, Per1: 0.77
[11]; 35 mg 3AP, Inferior Olive
  Relative level of mRNA, Per1: 0.90
[11]; 35 mg 3AP, Motor cortex
  Relative level of mRNA, Per1: 0.87
[11]; 35 mg 3AP, Striatum
  Relative level of mRNA, Per1: 0.86
